We go through 34 compounds from patent publication US12071404B2, “Aza (indole)-, benzothiophene-, and benzofuran-3-sulfonamides” (UCB Pharma GmbH, priority 2016, dated 2024).

The target in experiment [1] is T1, GPR17 (Homo sapiens, UniProt Q13304). Kind of experiment: cAMP accumulation functional assay (HTRF, Schild analysis). It counts as cell-based. Also noted: host or cells: Flp-In T-REx CHO. Particulars: CHO hGPR17 cells, Schild analysis vs MDL29,951, 5 μM forskolin, read-out: cAMP assay pA2 (converted). In short, it runs like this:
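CHO Flp-In T-REx cells with doxycycline-induced human GPR17 were preincubated 30 min at room temperature in HBSS-HEPES pH 7.4 with antagonist. cAMP was then measured by HTRF after 60 min. MDL29,951 pEC50 shifts gave dose ratios, and Schild analysis gave pA2.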

In experiment [2] the target is T1, GPR17. Kind of experiment: Calcium mobilization functional assay (GPR17 Ca2+ assay). It is filed as cell-based. The note with it: CHO hGPR17 cells, inhibition of 50 nM MDL29,951, Calcium 5 dye, FLIPR; read-out: Ca2+ assay pIC50 (converted). Also noted: host or cells: Flp-In T-REx CHO. The method in brief:
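Flp-In T-REx CHO cells stably expressing human GPR17, doxycycline-induced (1 μg/mL, 16-20 h), loaded 60 min with Calcium 5 dye. Inhibition by varying test-compound concentrations of the 50 nM MDL29,951 agonist response was read by fluorescence over time at room temperature. pIC50 came from 4-parameter logistic fitting.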
Background: A change in cytosolic calcium serves as a functional read-out for many receptors and channels.

Some results are limits rather than exact numbers.

T1 sequence (Q13304 whole entry): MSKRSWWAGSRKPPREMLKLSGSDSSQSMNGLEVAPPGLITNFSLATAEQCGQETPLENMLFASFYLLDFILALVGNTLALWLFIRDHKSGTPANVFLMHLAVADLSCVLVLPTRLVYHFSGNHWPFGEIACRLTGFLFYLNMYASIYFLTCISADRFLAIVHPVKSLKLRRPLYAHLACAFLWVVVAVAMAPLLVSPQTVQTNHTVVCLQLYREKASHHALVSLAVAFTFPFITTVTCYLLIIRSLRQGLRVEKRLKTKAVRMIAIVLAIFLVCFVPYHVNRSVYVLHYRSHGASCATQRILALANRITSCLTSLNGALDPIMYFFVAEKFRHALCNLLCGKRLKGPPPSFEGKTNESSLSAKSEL

Take `N#Cc1cc(F)c(NS(=O)(=O)c2c[nH]c3cc(Cl)ccc23)c(F)c1` [Compound I-182, 6-chloro-N-(4-cyano-2,6-difluorophenyl)-1H-indole-3-sulfonamide]: at GPR17 [1], the Kb is 3.16 to 31.6 nM. Also, at GPR17 [2], the IC50 was under 3.16 nM.

Regarding `O=S(=O)(Nc1ccc2nsnc2c1)c1c[nH]c2cc(Br)ccc12` [Compound I-183, N-(2,1,3-benzothiadiazol-5-yl)-6-bromo-1H-indole-3-sulfonamide], at GPR17 [1], the Kb was under 3.16 nM. Further, the IC50 on GPR17 [2] was under 3.16 nM.

On to `N#Cc1cc(F)c(NS(=O)(=O)c2c[nH]c3cc(C(F)(F)F)ccc23)cc1F` [Compound I-184, N-(4-cyano-2,5-difluorophenyl)-6-(trifluoromethyl)-1H-indole-3-sulfonamide], for which, on GPR17 [1], the Kb was under 3.16 nM. The IC50 on GPR17 [2] was under 3.16 nM.

Take `N#Cc1cc(F)c(NS(=O)(=O)c2c[nH]c3cc(Cl)ccc23)cc1F` [Compound I-185, 6-chloro-N-(4-cyano-2,5-difluorophenyl)-1H-indole-3-sulfonamide]: the Kb on GPR17 [1] is under 3.16 nM. Besides, on GPR17 [2], the IC50 was under 3.16 nM.

In the case of `O=S(=O)(Nc1cccc2nsnc12)c1c[nH]c2cc(C(F)(F)F)ccc12` [Compound I-186, N-(2,1,3-benzothiadiazol-4-yl)-6-(trifluoromethyl)-1H-indole-3-sulfonamide], at GPR17 [1], the Kb was 3.16 to 31.6 nM. In addition, the IC50 on GPR17 [2] is 3.16 to 31.6 nM.

Take `N#Cc1cc(F)c(NS(=O)(=O)c2c[nH]c3cc(Br)ccc23)cc1F` [Compound I-188, 6-bromo-N-(4-cyano-2,5-difluorophenyl)-1H-indole-3-sulfonamide]: the Kb at GPR17 [1] is under 3.16 nM. Moreover, on GPR17 [2], the IC50 was under 3.16 nM.

Consider `N#Cc1ccc(NS(=O)(=O)c2c[nH]c3cc(C(F)(F)F)ccc23)c(F)c1` [Compound I-189, N-(4-cyano-2-fluorophenyl)-6-(trifluoromethyl)-1H-indole-3-sulfonamide], for which the Kb at GPR17 [1] was under 3.16 nM. For the same compound, the IC50 on GPR17 [2] was under 3.16 nM.

As for `O=S(=O)(Nc1ncc(Cl)cc1F)c1c[nH]c2c1ccc1ccccc12` [Compound I-191, N-(5-chloro-3-fluoropyridin-2-yl)-1H-benzo[g]indole-3-sulfonamide], the Kb on GPR17 [1] was under 3.16 nM. In addition, the IC50 on GPR17 [2] was 3.16 to 31.6 nM.

On to `O=S(=O)(Nc1cc2nsnc2cc1F)c1c[nH]c2cc(Br)ccc12` [Compound I-193, 6-bromo-N-(6-fluoro-2,1,3-benzothiadiazol-5-yl)-1H-indole-3-sulfonamide], for which the Kb on GPR17 [1] is under 3.16 nM. Further, the IC50 at GPR17 [2] was under 3.16 nM.

Consider `COc1cc(CC#N)cnc1NS(=O)(=O)c1c[nH]c2cc(Cl)ccc12` [Compound I-194, 6-chloro-N-[5-(cyanomethyl)-3-methoxypyridin-2-yl]-1H-indole-3-sulfonamide], for which the Kb on GPR17 [1] was under 3.16 nM. Moreover, at GPR17 [2], the IC50 was under 3.16 nM.

In the case of `O=S(=O)(Nc1cc(OC(F)F)c(Cl)cc1F)c1c[nH]c2cc(Cl)ccc12` [Compound I-195, 6-chloro-N-[4-chloro-5-(difluoromethoxy)-2-fluorophenyl]-1H-indole-3-sulfonamide], on GPR17 [1], the Kb was under 3.16 nM. For the same compound, on GPR17 [2], the IC50 was 3.16 to 31.6 nM.

With `O=S(=O)(Nc1cc(F)c(Cl)cc1F)c1coc2cc(Cl)ccc12` [Compound I-198, 6-chloro-N-(4-chloro-2,5-difluorophenyl)-1-benzofuran-3-sulfonamide], the Kb on GPR17 [1] was 3.16 to 31.6 nM. Further, at GPR17 [2], the IC50 is 3.16 to 31.6 nM.

In the case of `O=S(=O)(Nc1nc(F)c(Cl)cc1F)c1c[nH]c2cc(Cl)ccc12` [Compound I-199, 6-chloro-N-(5-chloro-3,6-difluoropyridin-2-yl)-1H-indole-3-sulfonamide], the Kb on GPR17 [1] was under 3.16 nM. On GPR17 [2], the IC50 is 3.16 to 31.6 nM.

As for `O=S(=O)(Nc1nc(F)ccc1F)c1c[nH]c2cc(Cl)ccc12` [Compound I-200, 6-chloro-N-(3,6-difluoropyridin-2-yl)-1H-indole-3-sulfonamide], the Kb at GPR17 [1] was 3.16 to 31.6 nM. The IC50 on GPR17 [2] is 3.16 to 31.6 nM.

On to `O=S(=O)(Nc1ccc2nonc2c1)c1c[nH]c2cc(Cl)ccc12` [Compound I-201, N-(2,1,3-benzoxadiazol-5-yl)-6-chloro-1H-indole-3-sulfonamide], for which, on GPR17 [1], the Kb was under 3.16 nM. For the same compound, the IC50 at GPR17 [2] was over 31.6 nM.

Take `O=S(=O)(Nc1ncc(Cl)cc1F)c1c[nH]c2cc(Cl)ccc12` [Compound I-202, 6-chloro-N-(5-chloro-3-fluoropyridin-2-yl)-1H-indole-3-sulfonamide]: at GPR17 [1], the Kb was 3.16 to 31.6 nM. In addition, the IC50 on GPR17 [2] was under 3.16 nM.

Take `O=S(=O)(Nc1cc(F)c(F)cc1F)c1c[nH]c2cc(Cl)ccc12` [Compound I-203, 6-chloro-N-(2,4,5-trifluorophenyl)-1H-indole-3-sulfonamide]: the Kb at GPR17 [1] is under 3.16 nM. For the same compound, the IC50 on GPR17 [2] is 3.16 to 31.6 nM.

With `O=S(=O)(Nc1cc(F)c(Cl)cc1F)c1c[nH]c2cc(Cl)ccc12` [Compound I-204, 6-chloro-N-(4-chloro-2,5-difluorophenyl)-1H-indole-3-sulfonamide], the Kb at GPR17 [1] is under 3.16 nM. Besides, the IC50 at GPR17 [2] is 3.16 to 31.6 nM.

As for `N#CCc1ccc(NS(=O)(=O)c2c[nH]c3cc(Cl)ccc23)c(F)c1` [Compound I-206, 6-chloro-N-[4-(cyanomethyl)-2-fluorophenyl]-1H-indole-3-sulfonamide], at GPR17 [1], the Kb is under 3.16 nM. The IC50 on GPR17 [2] was 3.16 to 31.6 nM.

Take `COc1cc(Cl)c(F)cc1NS(=O)(=O)c1c[nH]c2cc(Cl)ccc12` [Compound I-208, 6-chloro-N-(4-chloro-5-fluoro-2-methoxyphenyl)-1H-indole-3-sulfonamide]: the Kb on GPR17 [1] was 3.16 to 31.6 nM. For the same compound, the IC50 at GPR17 [2] was over 31.6 nM.

Turning to `C#Cc1ccc(NS(=O)(=O)c2c[nH]c3cc(Cl)ccc23)c(F)c1` [Compound I-210, 6-chloro-N-(4-ethynyl-2-fluorophenyl)-1H-indole-3-sulfonamide], the Kb on GPR17 [1] is under 3.16 nM. The IC50 on GPR17 [2] is 3.16 to 31.6 nM.

As for `O=S(=O)(Nc1ccc(Br)cc1F)c1c[nH]c2cc(Cl)ccc12` [Compound I-212, N-(4-bromo-2-fluorophenyl)-6-chloro-1H-indole-3-sulfonamide], the Kb at GPR17 [1] was under 3.16 nM. Moreover, at GPR17 [2], the IC50 was 3.16 to 31.6 nM.

As to `O=S(=O)(Nc1cc(F)c(Br)cc1F)c1c[nH]c2cc(Cl)ccc12` [Compound I-213, N-(4-bromo-2,5-difluorophenyl)-6-chloro-1H-indole-3-sulfonamide], the Kb at GPR17 [1] is under 3.16 nM. In addition, the IC50 on GPR17 [2] is under 3.16 nM.

For `O=S(=O)(Nc1ccc(S(F)(F)(F)(F)F)cc1F)c1c[nH]c2cc(Cl)ccc12` [Compound I-215, 6-chloro-N-[2-fluoro-4-(pentafluoro-lambda-6-sulfanyl)phenyl]-1H-indole-3-sulfonamide], the Kb at GPR17 [1] was 3.16 to 31.6 nM. Further, the IC50 on GPR17 [2] was 3.16 to 31.6 nM.

As for `O=S(=O)(Nc1cccc2nonc12)c1c[nH]c2cc(Cl)ccc12` [Compound I-216, N-(2,1,3-benzoxadiazol-4-yl)-6-chloro-1H-indole-3-sulfonamide], on GPR17 [1], the Kb was 3.16 to 31.6 nM. The IC50 at GPR17 [2] was 3.16 to 31.6 nM.

In the case of `CC(=O)c1ccc(NS(=O)(=O)c2c[nH]c3cc(Cl)ccc23)c(F)c1` [Compound I-219, N-(4-acetyl-2-fluorophenyl)-6-chloro-1H-indole-3-sulfonamide], the Kb on GPR17 [1] is 3.16 to 31.6 nM. In addition, the IC50 at GPR17 [2] is 3.16 to 31.6 nM.

Consider `N#Cc1ccc(NS(=O)(=O)c2c[nH]c3cc(OCC4CC4)ccc23)c(F)c1` [Compound I-220, N-(4-cyano-2-fluorophenyl)-6-(cyclopropylmethoxy)-1H-indole-3-sulfonamide], for which, on GPR17 [1], the Kb is 3.16 to 31.6 nM. In addition, on GPR17 [2], the IC50 was 3.16 to 31.6 nM.

For `COc1ccc2c(S(=O)(=O)Nc3cc(F)c(Cl)cc3F)c[nH]c2c1` [Compound I-221, N-(4-chloro-2,5-difluorophenyl)-6-methoxy-1H-indole-3-sulfonamide], the Kb on GPR17 [1] is 3.16 to 31.6 nM. Moreover, the IC50 at GPR17 [2] was 3.16 to 31.6 nM.

On to `O=S(=O)(Nc1cc(F)c(F)cc1F)c1c[nH]c2nc(Cl)ccc12` [Compound I-223, 6-chloro-N-(2,4,5-trifluorophenyl)-1H-pyrrolo[2,3-b]pyridine-3-sulfonamide], for which the Kb on GPR17 [1] is over 31.6 nM. In addition, on GPR17 [2], the IC50 was 3.16 to 31.6 nM.

On to `O=S(=O)(Nc1ccc(Cl)cc1F)c1c[nH]c2nc(Cl)ccc12` [Compound I-224, 6-chloro-N-(4-chloro-2-fluorophenyl)-1H-pyrrolo[2,3-b]pyridine-3-sulfonamide], for which the Kb at GPR17 [1] is 3.16 to 31.6 nM. Besides, on GPR17 [2], the IC50 was 3.16 to 31.6 nM.

`O=S(=O)(Nc1cc2c(cc1F)OC(F)(F)O2)c1c[nH]c2nc(Cl)ccc12` [Compound I-225, 6-chloro-N-(2,2,6-trifluoro-1,3-benzodioxol-5-yl)-1H-pyrrolo[2,3-b]pyridine-3-sulfonamide]: the Kb on GPR17 [1] is 3.16 to 31.6 nM. Also, the IC50 on GPR17 [2] is over 31.6 nM.

Consider `O=S(=O)(Nc1ccc(F)c2nsnc12)c1c[nH]c2nc(Cl)ccc12` [Compound I-226, 6-chloro-N-(7-fluoro-2,1,3-benzothiadiazol-4-yl)-1H-pyrrolo[2,3-b]pyridine-3-sulfonamide], for which the Kb at GPR17 [1] is over 31.6 nM. The IC50 on GPR17 [2] is over 31.6 nM.

For the compound `O=S(=O)(Nc1cc(F)c(Cl)cc1F)c1c[nH]c2nc(Cl)ccc12` [Compound I-227, 6-chloro-N-(4-chloro-2,5-difluorophenyl)-1H-pyrrolo[2,3-b]pyridine-3-sulfonamide], the Kb at GPR17 [1] was under 3.16 nM. For the same compound, the IC50 on GPR17 [2] is under 3.16 nM.

As to `N#Cc1ccc(NS(=O)(=O)c2c[nH]c3cc(-c4cccnc4)ccc23)c(F)c1` [Compound I-229, N-(4-cyano-2-fluorophenyl)-6-(pyridin-3-yl)-1H-indole-3-sulfonamide], on GPR17 [1], the Kb is 3.16 to 31.6 nM. In addition, the IC50 at GPR17 [2] is 3.16 to 31.6 nM.
